The text below walks through data of publication PMC3853718 (Journal of Translational Medicine, 2013).

Molecules are shown by their SMILES.

The test system of data set [1] is patients. The conditions noted are these: higher doses (up to 57 mg/m^2), once-every-21-days dosing schedule; cited from earlier work.
Data set [2] deals with metabolically active sites of disease. The data set is described as follows: FDG-PET/CT tumor metabolic activity (SUVmax). The conditions noted are these: RP2D 12 mg/m^2, 10 evaluable subjects; responder = SUVmax decrease greater than 30%; 2-sided 95% CI: 0.3%, 44.5%.
Description: Metabolic activity data were obtained for research use only and were not used for clinical management of subjects.
Data set [3] has as its system subjects with advanced malignancies. The conditions noted are these: human, in vivo, iv, 28 days.
Protocol: Subjects continued on treatment until there was disease progression, unacceptable toxicity, or the subject withdrew consent. The trial employed an accelerated titration design [16] starting at a dose of 0.33 mg/m^2 (one-sixth of the highest nontoxic dose in dogs).
the dose was doubled in sequential subjects until a DLT was observed or a subject experienced grade 2 toxicity [16]. In the case of an observed grade 2 toxicity, a second subject was enrolled at the same dose level. If the second subject also experienced a grade 2 toxicity, 2 additional subjects were accrued at that dose level for a total of 4 subjects. […] Each subject was allocated to only a single dose level of drug. Dose delay or modification was permitted based on laboratory and clinical assessment performed on the day of treatment.
Dose-limiting toxicities were determined during the first cycle for each dose level. A DLT was defined as any grade 3 or 4 hematologic toxicity lasting for at least 1 week, or as any grade 3 or 4 nonhematologic toxicity. […] Normal alkaline phosphatase level (< grade 1) at screening that rose to greater than or equal to grade 3; grade 1 or 2 alkaline phosphatase level at screening that rose to grade 4; grade 1 or 2 aspartate aminotransferase (AST) and/or alanine aminotransferase (ALT) levels at screening that doubled from baseline to become greater than or equal to grade 3; and any other abnormal nonhematology laboratory value greater than or equal to grade 3 that required medical intervention to treat, led to hospitalization, or persisted for at least 1 week were also considered DLTs.
Adverse events were graded based on the National Cancer Institute Common Terminology Criteria for Adverse Events (NCI CTCAE version 3.0) and were coded using the Medical Dictionary for Regulatory Activities (MedDRA version 13.0).
In data set [4] the test system is myeloma and NSCLC mouse xenograft models. The conditions noted are these: at a dose 33% of the MAD; cited from earlier work.

As for `CCc1cnn2c(NCc3ccc[n+]([O-])c3)cc(N3CCCC[C@H]3CCO)nc12` [dinaciclib], in data set [1], the DLT result is given as “Neutropenia”. For the same molecule, the PET/CT response rate in data set [2] was 10.0%. The “recommended phase 2 dose (RP2D)” value in data set [3] stood at 12 mg/m^2. Also, the “tumor response in xenograft models” value in data set [4] was “complete tumor regression”.
